Measurements taken from ChEMBL document CHEMBL4725294, “Centrally Active Multitarget Anti-Alzheimer Agents Derived from the Antioxidant Lead CR-6” (J Med Chem, 2020).
Activity calls are given as the source filed them. The calls are words filed in the database; no cut-off is given here.

What was measured:
[1] = test system: Mus musculus; assay: Antialzheimer activity in APP/PS1 double mutant-transgenic C57BL6/J mouse model assessed as reduction in amyloid beta burden in cortex at 10 mg/kg/day, ip for 4 weeks followed by compound washout and measured after 24 hrs by hematoxylin staining based microscopic analysis; format: functional, organism-based
[2] = test system: Mus musculus; assay: Antialzheimer activity in APP/PS1 double mutant-transgenic C57BL6/J mouse model assessed as reduction in soluble amyloid beta 42 level in cortex at 10 mg/kg/day, ip for 4 weeks followed by compound washout and measured after 24 hrs by ELISA; format: functional, organism-based
[3] = test system: Mus musculus; assay: Antialzheimer activity in APP/PS1 double mutant-transgenic C57BL6/J mouse model assessed as increase in Adam10 gene expression at 10 mg/kg/day, ip for 4 weeks followed by compound washout and measured after 24 hrs by qPCR analysis; format: functional, organism-based
[4] = test system: Mus musculus; assay: Antialzheimer activity in APP/PS1 double mutant-transgenic C57BL6/J mouse model assessed as increase in Adam10 expression at 10 mg/kg/day, ip for 4 weeks followed by compound washout and measured after 24 hrs by Western blot analysis; format: functional, organism-based
[5] = test system: Mus musculus; assay: Antialzheimer activity in APP/PS1 double mutant-transgenic C57BL6/J mouse model assessed as effect on iNOS gene expression at 10 mg/kg/day, ip for 4 weeks followed by compound washout and measured after 24 hrs by qPCR analysis; format: functional, organism-based
[6] = Stability in human plasma assessed as parent compound remaining at 10 uM measured after 60 mins by UPLC-MS/MS analysis; format: ADME, cell-free; conditions: read-out: Stabilty
[7] = Stability in human plasma assessed as parent compound remaining at 10 uM measured after 360 mins by UPLC-MS/MS analysis; format: ADME, cell-free; conditions: read-out: Stabilty
[8] = Stability in mouse plasma assessed as parent compound remaining at 10 uM measured after 180 mins by UPLC-MS/MS analysis; format: ADME, cell-free; conditions: read-out: Stabilty
[9] = Stability in mouse plasma assessed as parent compound remaining at 10 uM measured after 360 mins by UPLC-MS/MS analysis; format: ADME, cell-free; conditions: read-out: Stabilty
[10] = Stability in rat plasma assessed as parent compound remaining at 10 uM measured after 60 mins by UPLC-MS/MS analysis; format: ADME, cell-free; conditions: read-out: Stabilty
[11] = Stability in mouse liver microsomes assessed as parent compound remaining at 5 uM measured up to 60 mins by UPLC-MS/MS analysis; format: ADME, Microsome; conditions: read-out: Stabilty
[12] = Intrinsic clearance in rat liver microsomes assessed per mg protein at 5 uM by UPLC-MS/MS analysis; format: ADME, Microsome; conditions: read-out: CLH
[13] = Drug metabolism in human liver microsomes assessed as N-[8-[(6-chloro-1,2,3,4-tetrahydroacridin-9-yl)amino]octyl]-2-(8-methoxy-2-methyl-6,9-dioxo-1-oxaspiro[4.5]dec-7-en-2-yl)acetamide formation at 5 uM measured up to 60 mins by UPLC-MS/MS analysis; format: ADME, Microsome; conditions: 1 h
[14] = Drug metabolism in mouse liver microsomes assessed as N-[8-[(6-chloro-1,2,3,4-tetrahydroacridin-9-yl)amino]octyl]-3-hydroxy-5-(4-methoxy-3,6-dioxo-cyclohexa-1,4-dien-1-yl)-3-methyl-pentanamide formation at 5 uM measured up to 60 mins by UPLC-MS/MS analysis; format: ADME, Microsome; conditions: 1 h
[15] = Drug metabolism in mouse liver microsomes assessed as N-[8-[(6-chloro-1,2,3,4-tetrahydroacridin-9-yl)amino]octyl]-2-(8-methoxy-2-methyl-6,9-dioxo-1-oxaspiro[4.5]dec-7-en-2-yl)acetamide formation at 5 uM measured up to 60 mins by UPLC-MS/MS analysis; format: ADME, Microsome; conditions: 1 h
[16] = Drug metabolism in rat liver microsomes assessed as N-[8-[(6-chloro-1,2,3,4-tetrahydroacridin-9-yl)amino]octyl]-2-(8-methoxy-2-methyl-6,9-dioxo-1-oxaspiro[4.5]dec-7-en-2-yl)acetamide formation at 5 uM measured up to 60 mins by UPLC-MS/MS analysis; format: ADME, Microsome; conditions: 1 h
[17] = target: Acetylcholinesterase (Homo sapiens, UniProt P22303)
Sequence of Acetylcholinesterase (P22303 whole entry): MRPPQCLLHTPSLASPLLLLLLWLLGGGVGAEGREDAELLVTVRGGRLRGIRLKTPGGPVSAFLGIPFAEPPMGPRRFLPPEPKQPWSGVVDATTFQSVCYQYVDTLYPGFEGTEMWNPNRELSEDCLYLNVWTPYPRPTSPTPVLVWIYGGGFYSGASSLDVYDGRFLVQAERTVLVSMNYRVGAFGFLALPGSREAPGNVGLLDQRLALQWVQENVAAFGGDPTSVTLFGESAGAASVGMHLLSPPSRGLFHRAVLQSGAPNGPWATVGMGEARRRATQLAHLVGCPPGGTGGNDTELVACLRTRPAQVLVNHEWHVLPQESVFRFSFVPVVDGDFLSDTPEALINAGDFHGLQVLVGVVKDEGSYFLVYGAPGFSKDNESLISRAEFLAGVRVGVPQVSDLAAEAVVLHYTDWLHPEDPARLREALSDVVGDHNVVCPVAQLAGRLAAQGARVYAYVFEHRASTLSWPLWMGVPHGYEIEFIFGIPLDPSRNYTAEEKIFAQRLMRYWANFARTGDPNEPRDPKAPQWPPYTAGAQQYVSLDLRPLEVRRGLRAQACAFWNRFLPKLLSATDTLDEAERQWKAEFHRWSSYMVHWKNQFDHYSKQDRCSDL
Description: Inhibition of recombinant human AChE expressed in HEK293 cells using acetylthiocholine iodide as substrate preincubated for 15 mins followed by substrate addition by Ellman's method

## COc1cc2c(cc1O)CCC(C)(CC(=O)NCCCCCCCCNc1c3c(nc4cc(Cl)ccc14)CCCC3)O2 (configuration not stated)
[1]
  Activity: inactive
[2]
  Activity: inactive
[3]
  Activity: inactive
[4]
  Activity: inactive
[5]
  Activity: inactive
[6]
  remaining at 1 h, 10 µM: 100%
[7]
  remaining at 6 h, 10 µM: 100%
[8]
  remaining at 3 h, 10 µM: 100%
[9]
  remaining at 6 h, 10 µM: 100%
[10]
  remaining at 1 h, 10 µM: 100%
[11]
  remaining at 1 h, 5 µM: 55.2%
[12]
  microsomal CLint at 5 µM: 16.3 µL/min/mg
[13]
  Drug metabolism: Metabolite_Detected
[14]
  Drug metabolism: Metabolite_Detected
[15]
  Drug metabolism: Metabolite_Detected
[16]
  Drug metabolism: Metabolite_Detected
[17]
  IC50: 3.69 nM
